Data set [1] can be described thus: Volume of distribution at steady state in Sprague-Dawley rat at 5 mg/kg, iv. It counts as ADME, organism-based. The settings on record: in vivo, read-out: Vdss.
The nature of data set [2]: Cmax in Sprague-Dawley rat at 5 mg/kg, iv. It counts as ADME, organism-based. Details: route intravenous, dose 5 mg/kg; call rule not given here. The settings on record: in vivo.
Data set [3] can be described thus: Half life in Sprague-Dawley rat at 5 mg/kg, iv. In kind it is ADME, organism-based. The note with it: in vivo.
The subject of data set [4] is SK-OV-3. Kind of data set: Antitumor activity against human SK-OV-3 cells xenografted in BALB/c nude mouse assessed as relative tumor volume at 50 mg/kg, po administered once daily for 12 days. In kind it is functional. The note with it: time 12 day. For orientation: A xenograft is tissue or cells of one species grown in another, often human tumour cells in immunodeficient mice.

The nature of data set [5]: Subacute toxicity in ICR mouse assessed as death at 1000 mg/kg, po administered for 14 days. In kind it is organism-based. The settings on record: in vivo, 336 h, time 14 day.
Data set [6] in a line: Half life in Sprague-Dawley rat at 50 mg/kg, po. In kind it is ADME, organism-based. The note with it: in vivo.
Data set [7] is described as follows: Drug distribution in spleen of mouse xenografted with human SK-OV-3 cells at 100 mg/kg, po after 9 hrs by LC-MS analysis. It counts as ADME, organism-based. The settings on record: in vivo.
Data set [8] in a line: Toxicity in BALB/c nude mouse xenografted with human A549 cells assessed as change in body weight at 25 to 50 mg/kg, po administered once daily measured for 28 days in presence of CBP. It counts as organism-based. The note with it: in vivo, 672 h, dose 25-50 mg/kg, time 28 day.
A short description of data set [9]: Drug distribution in tumor of mouse xenografted with human SK-OV-3 cells at 100 mg/kg, po after 1 hr by LC-MS analysis. In kind it is ADME, organism-based, Neoplasm. The note with it: in vivo.
Data set [10] can be described thus: Subacute toxicity in ICR mouse assessed as weight abnormalities at 1000 mg/kg, po administered for 14 days. In kind it is organism-based. The note with it: in vivo, 336 h, time 14 day.
Data set [11] can be described thus: MRT in Sprague-Dawley rat at 50 mg/kg, po. In kind it is ADME, organism-based. The settings on record: in vivo.
Data set [12] in a line: Oral bioavailability in Sprague-Dawley rat at 50 mg/kg. The settings on record: in vivo. In kind it is ADME, organism-based.
Data set [13] is described as follows: Tmax in Sprague-Dawley rat at 50 mg/kg, po. The note with it: in vivo. In kind it is ADME, organism-based.
Data set [14] is described as follows: AUC(0 to infinity) in Sprague-Dawley rat at 5 mg/kg, iv. It counts as ADME, organism-based. Details: route intravenous, time infinity, dose 5 mg/kg. The settings on record: in vivo.
Data set [15] can be described thus: Toxicity in ICR mouse assessed as effect on main visceral organs at 1000 mg/kg, ig administered for 14 days by H and E analysis. The settings on record: in vivo, po, 336 h, time 14 day. It counts as organism-based.
Data set [16] is described as follows: AUC(0 to infinity) in Sprague-Dawley rat at 50 mg/kg, po. In kind it is ADME, organism-based. Details: time infinity, route oral, dose 50 mg/kg. The settings on record: in vivo.
Data set [17] in a line: Drug distribution in liver of mouse xenografted with human SK-OV-3 cells at 100 mg/kg, po after 9 hrs by LC-MS analysis. It counts as ADME, organism-based. The settings on record: in vivo.
The nature of data set [18]: Acute toxicity in ICR mouse assessed as abnormalities at 200 to 1000 mg/kg, po administered for 14 days. It counts as organism-based. The note with it: in vivo, 336 h, dose 200-1000 mg/kg, time 14 day.
Data set [19] is described as follows: Toxicity in BALB/c mouse xenografted with human SK-OV-3 cells assessed as change in body weight at 25 to 50 mg/kg, po administered once daily measured for 28 days. In kind it is organism-based. The note with it: in vivo, 672 h, dose 25-50 mg/kg, time 28 day.
Data set [20] is described as follows: Cmax in Sprague-Dawley rat at 50 mg/kg, po. In kind it is ADME, organism-based. Details: route oral, dose 50 mg/kg. The note with it: in vivo.
Data set [21] can be described thus: MRT in Sprague-Dawley rat at 5 mg/kg, iv. In kind it is ADME, organism-based. The note with it: in vivo.
The nature of data set [22]: Total plasma clearance in Sprague-Dawley rat at 5 mg/kg, iv. It counts as ADME, organism-based.
Data set [23] can be described thus: Tmax in Sprague-Dawley rat at 5 mg/kg, iv. In kind it is ADME, organism-based. The settings on record: in vivo.
Data set [24] is described as follows: Acute toxicity in ICR mouse assessed as mortality at 200 to 1000 mg/kg, po administered for 14 days. In kind it is organism-based. The note with it: in vivo, 336 h, dose 200-1000 mg/kg, time 14 day.
Data set [25] in a line: Subacute toxicity in ICR mouse assessed as clinical abnormalities at 1000 mg/kg, po administered for 14 days. In kind it is organism-based. The settings on record: in vivo, 336 h, time 14 day.
Data set [26] concerns the target T1, Poly [ADP-ribose] polymerase 2 (Homo sapiens, UniProt Q9UGN5). In words: Inhibition of PARP-2 (unknown origin).
Data set [27] deals with T1, Poly [ADP-ribose] polymerase 2. In words: Inhibition of recombinant human full-length PARP-2 using biotinylated substrate.
For data set [28], the species on record is Homo sapiens. In words: Selectivity index, ratio of IC50 for PARP-2 (unknown origin) to IC50 for PARP-1 (unknown origin).
The target in data set [29] is T2, Poly [ADP-ribose] polymerase 1 (Homo sapiens, UniProt P09874). Kind of data set: Inhibition of PARP-1 (unknown origin).
T2 sequence (P09874 whole entry): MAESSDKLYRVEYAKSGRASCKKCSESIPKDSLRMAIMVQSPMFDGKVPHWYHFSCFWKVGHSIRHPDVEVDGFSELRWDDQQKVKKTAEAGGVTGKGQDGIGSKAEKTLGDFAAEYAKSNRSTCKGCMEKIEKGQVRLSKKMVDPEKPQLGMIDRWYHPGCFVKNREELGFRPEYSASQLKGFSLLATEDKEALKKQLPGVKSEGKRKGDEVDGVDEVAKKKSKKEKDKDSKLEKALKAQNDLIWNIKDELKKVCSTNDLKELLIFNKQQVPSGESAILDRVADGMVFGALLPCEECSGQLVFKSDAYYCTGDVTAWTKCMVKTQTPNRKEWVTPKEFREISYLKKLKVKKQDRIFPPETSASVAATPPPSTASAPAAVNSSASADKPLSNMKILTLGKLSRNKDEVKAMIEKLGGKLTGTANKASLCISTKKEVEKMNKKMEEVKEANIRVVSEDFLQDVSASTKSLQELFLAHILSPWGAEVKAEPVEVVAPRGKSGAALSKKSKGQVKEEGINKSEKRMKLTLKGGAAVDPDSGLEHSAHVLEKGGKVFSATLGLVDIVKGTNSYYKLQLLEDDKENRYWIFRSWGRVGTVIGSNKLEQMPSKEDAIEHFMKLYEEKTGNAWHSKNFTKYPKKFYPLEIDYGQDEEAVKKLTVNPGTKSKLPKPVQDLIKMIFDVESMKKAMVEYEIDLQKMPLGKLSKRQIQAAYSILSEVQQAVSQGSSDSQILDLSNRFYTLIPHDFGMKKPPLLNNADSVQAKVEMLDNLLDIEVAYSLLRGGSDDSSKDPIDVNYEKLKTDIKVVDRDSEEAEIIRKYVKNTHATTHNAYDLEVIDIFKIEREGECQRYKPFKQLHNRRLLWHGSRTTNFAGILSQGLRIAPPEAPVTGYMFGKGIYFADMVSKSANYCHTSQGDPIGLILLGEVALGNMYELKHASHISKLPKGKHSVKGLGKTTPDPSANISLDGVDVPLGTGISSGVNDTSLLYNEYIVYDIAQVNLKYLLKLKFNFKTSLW
Data set [30] concerns the target T2, Poly [ADP-ribose] polymerase 1. In words: Inhibition of recombinant human full-length PARP-1 using biotinylated substrate.
Data set [31] is filed under the species Homo sapiens. In words: Selectivity index, ratio of IC50 for inhibition of recombinant human full-length PARP-2 to IC50 for inhibition of recombinant human full-length PARP-1.

The Cmax is the peak of the concentration-time curve. As a reminder, the half-life is how long it takes for the measured level to halve. As usually defined, the MRT is a mean duration of stay, worked out from the concentration-time curve. By bioavailability is commonly meant the share of a dose that reaches the circulation, judged against a reference dose that is usually intravenous. Read a high bioavailability as good availability. The Tmax is the time at which the peak concentration occurs. A word on the AUC(0-inf): it is the area under the concentration-time curve extrapolated to infinity. High values mean high exposure, low ones low exposure. As a reminder, the clearance is the volume of plasma or blood freed of the substance per unit of time. Read a high clearance as efficient removal. Broadly, the IC50 is the midpoint of a concentration-inhibition curve.

T1 sequence (Q9UGN5 whole entry): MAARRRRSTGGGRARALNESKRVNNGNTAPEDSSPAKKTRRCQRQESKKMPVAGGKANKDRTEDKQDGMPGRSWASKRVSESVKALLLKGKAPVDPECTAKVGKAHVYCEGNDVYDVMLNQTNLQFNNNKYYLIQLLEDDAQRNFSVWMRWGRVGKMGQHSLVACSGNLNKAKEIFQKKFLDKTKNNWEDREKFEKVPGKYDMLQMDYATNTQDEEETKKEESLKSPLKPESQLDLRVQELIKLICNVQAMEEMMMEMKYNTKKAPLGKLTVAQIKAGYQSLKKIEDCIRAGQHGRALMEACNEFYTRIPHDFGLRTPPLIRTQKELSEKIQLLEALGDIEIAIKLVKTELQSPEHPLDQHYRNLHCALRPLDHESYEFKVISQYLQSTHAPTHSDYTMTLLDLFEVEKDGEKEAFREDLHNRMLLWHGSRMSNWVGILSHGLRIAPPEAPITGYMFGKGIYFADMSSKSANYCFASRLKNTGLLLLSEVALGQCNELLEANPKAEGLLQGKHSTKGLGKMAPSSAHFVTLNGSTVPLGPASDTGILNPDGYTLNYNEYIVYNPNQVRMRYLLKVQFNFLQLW

For the compound `Cl.Cl.O=c1cc(-c2ccc(O)cc2)oc2c(CN3CCN(Cc4cccs4)CC3)c(O)cc(O)c12`, in [1], the Vd worked out at 11.4 L/kg. Moreover, the Cmax was determined as 2880 ng/mL in [2] and 470 ng/mL in data set [20]. Further, the results for the half-life in data set [3] and in [6] were 3.19 h and 10.7 h, respectively. The Activity in data set [4] is on record as 0.74; in data set [5] it was “Non-Toxic”; in data set [8] it was “Non-Toxic”; in data set [10], “Non-Toxic”; in [15], “Non-Toxic”; in [18], “Non-Toxic”. The Activity result in data set [19], in [24] and in data set [25] was “Non-Toxic” in each case. Besides, the Drug uptake entry in data set [7] was “Not Active”; in data set [9] it was “Active”; in data set [17], “Active”. Moreover, the MRT amounted to 13 h in data set [11] and 3.14 h in [21]. The compound further gave a bioavailability in [12] of 26.5%. The Tmax is 1.5 h in [13] and 1.8 min in data set [23]. For the same compound, the results for the AUC(0-inf) in data set [14] and in data set [16] were 1370 ng·h/mL and 3630 ng·h/mL, respectively. This compound also had a clearance in data set [22] of 60.5 mL/min/kg.
Consider `O=c1cc(-c2ccc(O)c(-c3c(O)cc(O)c4c(=O)cc(-c5ccc(O)cc5)oc34)c2)oc2cc(O)cc(O)c12` [AMENTOFLAVONE], for which the IC50 in data set [26] came to 10.3 µM; in data set [27] it was 10.3 µM; in data set [29], 0.0002 µM; in [30], 0.187 µM. For the same compound, the values for the Ratio IC50 in data set [28] and in data set [31] were 52 and 55.2, respectively.

Values taken from ChEMBL document CHEMBL4842357, “Discovery of Novel Apigenin-Piperazine Hybrids as Potent and Selective Poly (ADP-Ribose) Polymerase-1 (PARP-1) Inhibitors for the Treatment of Cancer” (J Med Chem, 2021).
